Some results are limits rather than exact numbers.

The target of the assay is T1, Peroxisome proliferator-activated receptor alpha (Homo sapiens, UniProt Q07869).
T1 sequence (Q07869 whole entry): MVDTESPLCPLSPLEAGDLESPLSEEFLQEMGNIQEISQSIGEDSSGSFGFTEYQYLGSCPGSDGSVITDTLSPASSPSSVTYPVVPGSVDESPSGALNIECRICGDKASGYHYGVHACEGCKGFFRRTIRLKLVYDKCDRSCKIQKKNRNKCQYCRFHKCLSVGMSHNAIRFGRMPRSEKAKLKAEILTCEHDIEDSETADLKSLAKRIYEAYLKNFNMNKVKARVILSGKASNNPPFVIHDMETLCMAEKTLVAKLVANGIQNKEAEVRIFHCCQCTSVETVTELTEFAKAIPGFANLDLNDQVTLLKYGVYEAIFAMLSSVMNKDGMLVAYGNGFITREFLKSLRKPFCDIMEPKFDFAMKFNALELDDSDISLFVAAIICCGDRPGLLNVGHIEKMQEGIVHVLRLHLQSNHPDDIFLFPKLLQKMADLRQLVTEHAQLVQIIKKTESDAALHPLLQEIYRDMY
`Cc1cccc(C(=O)O)c1NC(=O)c1cccc(S(=O)(=O)N2CCc3ccccc3C2)c1`: the IC50 was above 10 µM. Next, `Cc1cccc(NC(=O)c2cccc(S(=O)(=O)N3CCc4ccccc4C3)c2)c1C(=O)O`: above 10 µM. Next, `Cc1ccc(NC(=O)c2cccc(S(=O)(=O)n3ccc4c(C)cccc43)c2)c(C(=O)O)c1`: 1 µM. On to `COc1ccc2ccn(S(=O)(=O)c3cccc(C(=O)Nc4ccc(C)cc4C(=O)O)c3)c2c1`, for which the concentration for half-maximal inhibition (IC50) was 3.98 µM. This IC50 is about 4-fold higher than that of the molecule before. To `Cc1ccc(NC(=O)c2cccc(S(=O)(=O)n3ccc4cccc(Cl)c43)c2)c(C(=O)O)c1` belongs 3.16 µM.

In the case of `Cc1ccc(NC(=O)c2cccc(S(=O)(=O)n3ccc4ccc(Cl)cc43)c2)c(C(=O)O)c1`, half-maximal inhibition (IC50) required 3.16 µM. Next, `COc1cccc2c1ccn2S(=O)(=O)c1cccc(C(=O)Nc2ccc(Cl)cc2C(=O)O)c1`: 0.794 µM; `COc1ccc2c(ccn2S(=O)(=O)c2cccc(C(=O)Nc3ccc(Cl)cc3C(=O)O)c2)c1`: 3.16 µM; `COc1ccc2ccn(S(=O)(=O)c3cccc(C(=O)Nc4ccc(Cl)cc4C(=O)O)c3)c2c1`: 1.58 µM. To `Cc1ccc(NC(=O)c2cccc(S(=O)(=O)n3ccc4cc(C)ccc43)c2)c(C(=O)O)c1` belongs 1 µM; to `O=C(O)COc1cccc2c1CCN(S(=O)(=O)c1cccc(C(=O)Nc3ccc(Cl)cc3C(=O)O)c1)C2`, 5.01 µM; to `Cc1ccc(NC(=O)c2cccc(S(=O)(=O)n3ccc4cccc(C)c43)c2)c(C(=O)O)c1`, 1.58 µM. To `COc1cccc2ccn(S(=O)(=O)c3cccc(C(=O)Nc4ccc(C)cc4C(=O)O)c3)c12` belongs above 10 µM.

`COc1cccc2c1ccn2S(=O)(=O)c1cccc(C(=O)Nc2ccc(C)cc2C(=O)O)c1` showed an IC50 of 1.26 µM.

The molecule `COc1ccc2c(ccn2S(=O)(=O)c2cccc(C(=O)Nc3ccc(C)cc3C(=O)O)c2)c1` showed a 50% inhibitory concentration (IC50) of 7.94 µM.
